# From ChEMBL document CHEMBL5223124, “Recent applications of covalent chemistries in protein-protein interaction inhibitors” (RSC Med Chem, 2022)
# pEC50, pKd: −log10 of the molar value.
# Target: E3 ubiquitin-protein ligase Mdm2 (Homo sapiens, UniProt Q00987)
# Test: Binding affinity to HDM2 (unknown origin)
# Sequence of E3 ubiquitin-protein ligase Mdm2 (Q00987 whole entry): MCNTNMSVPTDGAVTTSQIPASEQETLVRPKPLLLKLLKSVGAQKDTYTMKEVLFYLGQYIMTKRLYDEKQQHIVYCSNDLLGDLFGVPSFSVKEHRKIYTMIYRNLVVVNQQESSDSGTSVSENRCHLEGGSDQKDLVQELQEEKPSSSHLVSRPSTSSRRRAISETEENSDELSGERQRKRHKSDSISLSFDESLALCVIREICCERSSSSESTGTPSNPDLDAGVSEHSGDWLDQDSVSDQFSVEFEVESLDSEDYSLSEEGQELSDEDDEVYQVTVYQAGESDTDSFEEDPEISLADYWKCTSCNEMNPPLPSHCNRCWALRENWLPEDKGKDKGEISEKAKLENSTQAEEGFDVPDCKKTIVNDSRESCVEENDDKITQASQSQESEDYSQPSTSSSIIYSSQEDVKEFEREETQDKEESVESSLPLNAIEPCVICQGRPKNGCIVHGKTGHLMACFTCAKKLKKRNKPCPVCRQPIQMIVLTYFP
row,SMILES,pKd
1,COc1ccc(C2=NC(c3ccc(Cl)cc3)C(c3ccc(Cl)cc3)N2C(=O)N2CCN(C(=O)CCCNC(=O)CCCC(=O)N(CC#N)S(=O)(=O)c3ccccc3)CC2)c(OC(C)C)c1 (centres undefined),6.24

# Target: Induced myeloid leukemia cell differentiation protein Mcl-1 (Homo sapiens, UniProt Q07820)
# Test: Inhibition of MCL-1 in human MOLP8 cells assessed as increase in caspase 3/7 activation
# Assay type: cell-based
# Sequence of Induced myeloid leukemia cell differentiation protein Mcl-1 (Q07820 whole entry): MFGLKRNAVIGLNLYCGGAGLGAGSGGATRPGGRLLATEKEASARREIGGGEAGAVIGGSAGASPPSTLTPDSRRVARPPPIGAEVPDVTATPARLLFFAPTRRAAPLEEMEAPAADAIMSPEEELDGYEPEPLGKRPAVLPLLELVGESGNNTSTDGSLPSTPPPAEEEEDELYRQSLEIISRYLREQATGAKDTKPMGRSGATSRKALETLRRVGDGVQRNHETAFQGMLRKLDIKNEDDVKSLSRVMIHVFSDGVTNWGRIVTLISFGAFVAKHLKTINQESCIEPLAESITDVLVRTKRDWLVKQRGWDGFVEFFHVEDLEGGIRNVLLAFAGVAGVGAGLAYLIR
row,SMILES,pEC50
1,Cc1c(-c2cccc3c(CCCOc4cccc5ccccc45)c(C(=O)O)[nH]c23)c(COc2ccccc2)nn1C,< 4.96
2,CCc1nn(C)c(CC)c1-c1cccc2c(CCCOc3cccc4ccccc34)c(C(=O)O)n(CCN3CCOCC3)c12,6.47
3,CC(=O)c1cc(OCc2nn(C)c(C)c2-c2cccc3c(CCCOc4cccc5ccccc45)c(C(=O)O)[nH]c23)ccc1B(O)O,5.93
4,Cc1c(-c2cccc3c(CCCOc4cccc5ccccc45)c(C(=O)O)[nH]c23)c(COc2ccc(B(O)O)cc2)nn1C,< 4.96
5,CC(=O)c1cccc(OCc2nn(C)c(C)c2-c2cccc3c(CCCOc4cccc5ccccc45)c(C(=O)O)[nH]c23)c1,5.57
6,Cc1c(-c2cccc3c(CCCOc4cccc5ccccc45)c(C(=O)O)[nH]c23)c(COc2ccc(B(O)O)c(C=O)c2)nn1C,6.34
7,Cc1c(-c2cccc3c(CCCOc4cccc5ccccc45)c(C(=O)O)n(C)c23)c(COc2ccc(B(O)O)c(C=O)c2)nn1C,7.12
8,Cc1c(-c2cccc3c(CCCOc4cccc5ccccc45)c(C(=O)O)[nH]c23)c(COc2cccc(C=O)c2)nn1C,< 4.96
